In ChEMBL document CHEMBL1201862, “PubChem BioAssay data set” (2004):
The source made the active and inactive calls.

Tests used:
[1] = target: T1, Mannose-6-phosphate isomerase (Homo sapiens, UniProt P34949); assay: MPI enzyme activity inhibition – biochemical, fluorescence intensity, coupled assay, primary screen (AID 1209)
T1 sequence (P34949 whole entry): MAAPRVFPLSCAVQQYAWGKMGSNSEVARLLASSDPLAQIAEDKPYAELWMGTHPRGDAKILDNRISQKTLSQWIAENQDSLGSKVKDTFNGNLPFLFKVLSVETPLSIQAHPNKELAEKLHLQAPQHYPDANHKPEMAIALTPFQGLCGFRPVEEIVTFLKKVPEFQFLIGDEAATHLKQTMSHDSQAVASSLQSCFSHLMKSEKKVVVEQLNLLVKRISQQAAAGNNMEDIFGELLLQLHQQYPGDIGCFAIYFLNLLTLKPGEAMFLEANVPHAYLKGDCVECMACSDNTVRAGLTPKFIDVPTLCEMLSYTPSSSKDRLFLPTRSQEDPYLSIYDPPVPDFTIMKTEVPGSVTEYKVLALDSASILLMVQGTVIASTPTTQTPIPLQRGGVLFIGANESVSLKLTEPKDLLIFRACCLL

[2] = target: Peroxisome proliferator-activated receptor gamma/Nuclear receptor coactivator 1 (Homo sapiens, UniProt P37231); assay type: functional;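 also: agonist potency as compounds enhance coactivator SRC-1 recruitment to PPARgamma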
[3] = target: Peroxisome proliferator-activated receptor gamma/Nuclear receptor coactivator 2 (Homo sapiens, UniProt P37231); assay type: functional;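 also: agonist potency for raising coactivator recruitment to the receptor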
[4] = target: Peroxisome proliferator-activated receptor gamma/Nuclear receptor coactivator 3 (Homo sapiens, UniProt P37231); assay type: functional;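 also: agonist potency for raising coactivator recruitment to the receptor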
Insulin-degrading enzyme = target: T2, Insulin-degrading enzyme (Homo sapiens, UniProt P14735); assay: Dose Response: Fluorescence polarization-based cell-based high throughput dose response assay for inhibitors of insulin-degrading enzyme (IDE). [Related pubchem assays: 434962 (Primary screen (IDE inhibitors in singlicate)), 449730 (Counterscreen (Cytotoxicity in triplicate)), 435028 (Confirmation (IDE inhibitors in triplicate)), 434984 (Summary …; assay type: functional
T2 sequence (P14735 whole entry): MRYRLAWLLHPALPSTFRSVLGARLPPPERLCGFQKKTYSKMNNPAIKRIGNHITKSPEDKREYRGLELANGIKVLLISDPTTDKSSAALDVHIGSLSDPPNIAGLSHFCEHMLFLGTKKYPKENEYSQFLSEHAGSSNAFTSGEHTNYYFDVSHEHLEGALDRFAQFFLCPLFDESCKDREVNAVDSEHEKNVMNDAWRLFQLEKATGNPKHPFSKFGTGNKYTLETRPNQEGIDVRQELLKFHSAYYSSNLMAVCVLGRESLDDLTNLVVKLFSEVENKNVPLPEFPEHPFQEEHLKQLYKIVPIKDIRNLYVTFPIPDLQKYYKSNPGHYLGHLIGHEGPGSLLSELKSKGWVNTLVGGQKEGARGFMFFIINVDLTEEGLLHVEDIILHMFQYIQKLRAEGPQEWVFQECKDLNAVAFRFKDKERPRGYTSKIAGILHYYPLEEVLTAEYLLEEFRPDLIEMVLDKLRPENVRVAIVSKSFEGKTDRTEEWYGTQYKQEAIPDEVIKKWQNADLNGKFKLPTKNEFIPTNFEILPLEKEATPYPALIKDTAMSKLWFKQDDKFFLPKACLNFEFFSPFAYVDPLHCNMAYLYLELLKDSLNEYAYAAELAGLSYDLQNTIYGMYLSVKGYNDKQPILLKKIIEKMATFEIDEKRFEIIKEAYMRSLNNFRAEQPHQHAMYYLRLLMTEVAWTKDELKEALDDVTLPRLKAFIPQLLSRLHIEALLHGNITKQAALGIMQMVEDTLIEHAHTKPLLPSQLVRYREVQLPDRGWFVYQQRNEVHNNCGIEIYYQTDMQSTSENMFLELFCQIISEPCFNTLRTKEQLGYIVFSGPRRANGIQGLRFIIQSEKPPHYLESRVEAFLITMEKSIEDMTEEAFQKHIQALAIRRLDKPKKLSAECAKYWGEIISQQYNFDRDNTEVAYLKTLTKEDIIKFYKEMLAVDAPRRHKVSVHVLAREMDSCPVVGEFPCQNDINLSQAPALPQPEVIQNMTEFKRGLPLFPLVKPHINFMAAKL

[5] = Counterscreen for IDE inhibitors: Luminescence-based cell-based high throughput dose response assay to identify compounds that are cytotoxic to HEK cells. [Related pubchem assays: 434962 (Primary screen (IDE inhibitors in singlicate)), 449730 (Counterscreen (Cytotoxicity in triplicate)), 435028 (Confirmation (IDE inhibitors in triplicate)) …; assay type: functional; conditions: HEK293
[6] = viability of uninfected HEp-2 cells – cell-based, HTS, cytotoxicity control for RSV inhibitor project, dose response (AID 2410); assay type: functional; conditions: human respiratory syncytial virus

Chain of Peroxisome proliferator-activated receptor gamma/Nuclear receptor coactivator 3 (P37231 whole entry): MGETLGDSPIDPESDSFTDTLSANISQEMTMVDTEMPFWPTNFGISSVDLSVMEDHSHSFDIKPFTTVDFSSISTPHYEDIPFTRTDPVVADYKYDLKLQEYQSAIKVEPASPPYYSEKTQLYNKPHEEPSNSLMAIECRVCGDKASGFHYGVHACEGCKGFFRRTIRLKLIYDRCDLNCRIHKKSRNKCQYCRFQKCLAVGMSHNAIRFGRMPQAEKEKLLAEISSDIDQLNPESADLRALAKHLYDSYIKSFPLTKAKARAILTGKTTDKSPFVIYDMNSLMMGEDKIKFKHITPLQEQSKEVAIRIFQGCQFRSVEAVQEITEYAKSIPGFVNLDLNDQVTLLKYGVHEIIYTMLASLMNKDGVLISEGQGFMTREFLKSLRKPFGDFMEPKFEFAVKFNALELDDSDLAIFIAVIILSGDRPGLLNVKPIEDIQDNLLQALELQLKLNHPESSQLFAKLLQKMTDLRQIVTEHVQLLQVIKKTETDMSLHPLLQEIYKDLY
Chain of Peroxisome proliferator-activated receptor gamma/Nuclear receptor coactivator 3 (Q9Y6Q9 whole entry, further chain): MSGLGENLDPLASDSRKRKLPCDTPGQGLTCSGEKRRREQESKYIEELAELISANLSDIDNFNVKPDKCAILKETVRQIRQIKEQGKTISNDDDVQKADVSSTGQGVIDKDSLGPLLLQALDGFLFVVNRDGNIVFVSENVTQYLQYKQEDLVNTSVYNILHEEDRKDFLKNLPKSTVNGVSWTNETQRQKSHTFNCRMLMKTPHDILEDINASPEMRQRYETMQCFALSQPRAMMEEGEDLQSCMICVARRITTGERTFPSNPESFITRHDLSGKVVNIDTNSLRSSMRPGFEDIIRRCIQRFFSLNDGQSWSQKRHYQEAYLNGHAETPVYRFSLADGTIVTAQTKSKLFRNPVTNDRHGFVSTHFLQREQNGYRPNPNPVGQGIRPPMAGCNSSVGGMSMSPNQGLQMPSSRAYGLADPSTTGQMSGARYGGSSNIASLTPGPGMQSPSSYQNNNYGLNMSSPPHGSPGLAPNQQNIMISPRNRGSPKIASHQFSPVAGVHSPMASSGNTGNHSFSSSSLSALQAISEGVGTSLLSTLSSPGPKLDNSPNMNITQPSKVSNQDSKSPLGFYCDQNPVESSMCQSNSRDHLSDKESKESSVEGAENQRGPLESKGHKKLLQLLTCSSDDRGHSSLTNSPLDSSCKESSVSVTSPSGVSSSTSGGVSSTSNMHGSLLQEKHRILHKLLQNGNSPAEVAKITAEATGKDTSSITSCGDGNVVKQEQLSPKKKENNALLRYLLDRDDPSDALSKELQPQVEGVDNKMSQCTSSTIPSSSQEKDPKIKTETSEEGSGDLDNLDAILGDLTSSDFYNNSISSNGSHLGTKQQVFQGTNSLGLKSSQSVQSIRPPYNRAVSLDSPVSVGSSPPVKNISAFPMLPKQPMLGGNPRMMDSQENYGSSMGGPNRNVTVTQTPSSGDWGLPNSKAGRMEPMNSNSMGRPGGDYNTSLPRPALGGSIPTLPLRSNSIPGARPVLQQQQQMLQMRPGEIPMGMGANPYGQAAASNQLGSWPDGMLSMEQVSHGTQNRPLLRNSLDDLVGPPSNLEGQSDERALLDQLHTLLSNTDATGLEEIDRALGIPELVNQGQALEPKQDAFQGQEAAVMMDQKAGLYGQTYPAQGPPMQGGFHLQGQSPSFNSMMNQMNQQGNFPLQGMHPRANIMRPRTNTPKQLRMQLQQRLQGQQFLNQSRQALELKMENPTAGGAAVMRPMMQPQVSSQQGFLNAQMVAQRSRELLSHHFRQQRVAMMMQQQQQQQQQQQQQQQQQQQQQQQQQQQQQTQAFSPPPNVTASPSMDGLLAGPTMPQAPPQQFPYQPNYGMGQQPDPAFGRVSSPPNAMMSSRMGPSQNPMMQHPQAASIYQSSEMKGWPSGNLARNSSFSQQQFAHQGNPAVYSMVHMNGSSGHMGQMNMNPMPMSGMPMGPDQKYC
Chain of Peroxisome proliferator-activated receptor gamma/Nuclear receptor coactivator 1 (P37231 whole entry): as the sequence (P37231 whole entry) above
Chain of Peroxisome proliferator-activated receptor gamma/Nuclear receptor coactivator 1 (Q15788 whole entry, further chain): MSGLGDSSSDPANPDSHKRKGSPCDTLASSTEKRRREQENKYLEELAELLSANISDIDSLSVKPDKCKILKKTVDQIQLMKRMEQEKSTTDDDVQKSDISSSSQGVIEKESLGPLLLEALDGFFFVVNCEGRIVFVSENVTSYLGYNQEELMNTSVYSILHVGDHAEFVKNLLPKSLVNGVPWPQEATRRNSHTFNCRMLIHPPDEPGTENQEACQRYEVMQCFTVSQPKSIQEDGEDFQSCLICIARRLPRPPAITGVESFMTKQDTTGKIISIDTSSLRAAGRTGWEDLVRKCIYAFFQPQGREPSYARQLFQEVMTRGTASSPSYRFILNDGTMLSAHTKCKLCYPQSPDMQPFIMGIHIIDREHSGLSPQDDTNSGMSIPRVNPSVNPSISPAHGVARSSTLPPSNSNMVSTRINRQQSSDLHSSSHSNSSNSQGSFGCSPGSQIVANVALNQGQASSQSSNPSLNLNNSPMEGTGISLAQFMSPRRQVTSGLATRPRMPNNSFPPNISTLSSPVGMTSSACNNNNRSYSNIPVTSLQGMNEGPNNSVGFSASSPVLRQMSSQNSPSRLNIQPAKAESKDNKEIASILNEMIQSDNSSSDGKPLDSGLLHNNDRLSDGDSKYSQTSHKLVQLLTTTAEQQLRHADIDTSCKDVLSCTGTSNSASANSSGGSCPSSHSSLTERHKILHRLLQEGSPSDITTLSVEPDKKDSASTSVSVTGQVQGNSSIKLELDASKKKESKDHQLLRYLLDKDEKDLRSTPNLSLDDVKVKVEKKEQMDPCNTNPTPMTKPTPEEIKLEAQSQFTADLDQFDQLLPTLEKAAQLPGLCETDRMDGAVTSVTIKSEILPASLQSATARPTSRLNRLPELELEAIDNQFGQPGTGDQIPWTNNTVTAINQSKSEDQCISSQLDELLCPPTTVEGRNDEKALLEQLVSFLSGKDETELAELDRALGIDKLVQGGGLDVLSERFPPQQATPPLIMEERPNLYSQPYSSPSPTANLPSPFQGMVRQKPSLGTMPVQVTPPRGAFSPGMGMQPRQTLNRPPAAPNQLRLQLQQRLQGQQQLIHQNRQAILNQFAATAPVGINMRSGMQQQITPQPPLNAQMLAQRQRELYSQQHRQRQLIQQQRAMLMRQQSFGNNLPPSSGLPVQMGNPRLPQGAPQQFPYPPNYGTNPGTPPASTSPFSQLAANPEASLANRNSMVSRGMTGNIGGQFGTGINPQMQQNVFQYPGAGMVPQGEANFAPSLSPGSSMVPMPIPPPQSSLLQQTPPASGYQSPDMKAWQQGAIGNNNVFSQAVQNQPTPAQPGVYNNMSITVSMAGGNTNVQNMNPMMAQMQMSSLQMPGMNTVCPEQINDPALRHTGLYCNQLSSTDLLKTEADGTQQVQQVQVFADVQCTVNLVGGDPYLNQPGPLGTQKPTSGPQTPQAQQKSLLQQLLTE

Which IC50 [1] does the source give for `CCOc1ccc2c(c1)C(C)=CC(C)(C)N2C(=O)Nc1ccccc1` here?
Its IC50 is > 50 µM (not active).

What does the source list for `CC(=O)Nc1c(O)nc(SCC(=O)Nc2ccc(C(C)=O)cc2)[nH]c1=O`?
EC50 [2]: > 79.4 µM (not active); EC50 [3]: > 79.4 µM (not active); EC50 [4]: > 79.4 µM (not active)

Which IC50 (Insulin-degrading enzyme) does the source give for `CC(=O)Nc1cc(/N=C/c2ccc(O)cc2O)c(Cl)cc1Cl` here?
The IC50 was > 6.22 µM (active).

And the IC50 [5]?
Its IC50 is 16 µM (not active).

Which IC50 [1] does the source give for `O=C(O)c1cccc(N/N=C/c2cccnc2)c1` here?
The IC50 was > 50 µM (not active).

Which CC50 [6] does the source give for `CCN(CC(=O)Nc1cc(Cl)ccc1C)C(=O)CSCc1ccc(C)cc1` here?
The CC50 was 24.5 µM (active).

What about the IC50 (cells) of the same compound?
Its IC50 is 22.8 µM (active).
